Some test systems named below: LXFL 529 NSCLC; SNB-78 CNS; HOP-18 NSCLC; RXF-631 renal; BT-549 breast; P388 leukemia; P388/ADR leukemia; SN12K1 renal.
Holding throughout (experiment): NCI tumour cell line growth inhibition, 48 h

Molecules are shown by their SMILES. Where “and” joins values, the source holds several entries; their conditions need not be identical. Equal values may be shown once.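 Growth conditions: 96-well plates. Treatment: test compound, 48 hours, 5 concentrations. Analysis: linear interpolation between bracketing concentrations; unreached endpoints set to highest concentration. The concentration for 50% growth inhibition is given as GI50. TGI: total growth inhibition.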

Take `COCCOCOC(C)(C)[C@H](CCO)O[Si](c1ccccc1)(c1ccccc1)C(C)(C)C`: the TGI is 21.6 µM in the experiment on LXFL 529 NSCLC, 35.1 µM in the experiment with SNB-78 CNS, 31.9 µM with HOP-18 NSCLC and 21.7 µM with RXF-631 renal.
For `C/C(=N\NC(=S)Nc1ccc([N+](=O)[O-])cc1)c1nc2ncccc2[nH]1`, in the experiment on BT-549 breast, the TGI was 2.35 µM.
Regarding `c1ccc2cc3c(cc2c1)OP1(Oc2cccc4cccnc24)(O3)Oc2cc3ccccc3cc2O1`, the TGI in the experiment on SNB-78 CNS was greater than 100 µM; in the experiment on HOP-18 NSCLC it was 56.3 µM; in the experiment with P388 leukemia, 4.57 µM; in the experiment with P388/ADR leukemia it was 6.73 µM; in the experiment with SN12K1 renal, 20.5 µM.
With `C/C(N=NS(=O)(=O)c1ccc(C)cc1)=C1\C=CC=CN1O`, the TGI with LXFL 529 NSCLC, in the experiment on SNB-78 CNS, in the experiment on HOP-18 NSCLC and with RXF-631 renal was greater than 100 µM in each case.
On to `O=C(O)CCCc1ccccc1`, for which, in the experiment with BT-549 breast, the GI50 is 242 µM and > 1000 µM; the TGI is greater than 1000 µM.
On to `Nc1n[nH]c(CCCCCCCc2nc(N)n[nH]2)n1`, for which the TGI in the experiment on LXFL 529 NSCLC and in the experiment with SNB-78 CNS was greater than 100 µM in each case.
In turn, `OC1COC(OCc2ccccc2)C(O)C1O` (stereo unspecified) returned a TGI in the experiment with BT-549 breast greater than 100 µM.
On the same count and under the same terms, the value for `O=C(O)CC12CC3CC(CC(O)(C3)C1)C2` was greater than 100 µM.
Consider `C=CCNC(=O)CN(CC(=O)OC)C1CCCCC1N(CC(=O)OC)CC(=O)OC` (stereo unspecified), for which, in the experiment on BT-549 breast, the TGI is greater than 100 µM.
With `CC(C)=CCC/C(C)=C/CCC1(C)C=Cc2c(c3ccccc3oc2=O)O1` (stereo unspecified), the TGI in the experiment with SNB-78 CNS is greater than 92.8 µM; in the experiment on HOP-18 NSCLC it was 32.6 µM; in the experiment with P388 leukemia, 52.6 µM; in the experiment with P388/ADR leukemia, greater than 62.6 µM; with SN12K1 renal, 30.7 µM.
Take `COc1cc(C(=O)C2CC3(CCC2(O)c2cc(OC)c(OC)c(OC)c2)CC(=O)Nc2ccccc2C3=O)cc(OC)c1OC` (stereo unspecified): the TGI in the experiment with BT-549 breast was greater than 100 µM.
Still for that read-out and setting: as for `Cc1cn(C2CC(O)C(Cn3nncc3Cn3ncc(=O)[nH]c3=O)O2)c(=O)[nH]c1=O` (stereo unspecified), the figure is greater than 100 µM.
For the molecule `COc1cc(/C=C/C2=C(C#N)C(=O)OC2(C)C)ccc1O`, the TGI with SNB-78 CNS, with HOP-18 NSCLC and in the experiment with RXF-631 renal was greater than 100 µM in each case.
`Cc1cccc(CNc2ncnc3[nH]ncc23)c1`: in the experiment with BT-549 breast, the TGI was greater than 100 µM.
On to `CC(C)=CC(=O)OC1C2C(C)=CC(O)C(O)C2(C)C2C3(O)OCC24C(CC(=O)OC14)C(C)C3O` (stereo unspecified), for which the TGI in the experiment on SNB-78 CNS is 1.11 µM; in the experiment on HOP-18 NSCLC, 7.58 µM; in the experiment with P388 leukemia, 0.0201 µM; in the experiment on P388/ADR leukemia, 7.09 µM; in the experiment on SN12K1 renal, 0.0909 µM.
With `O=C(O)C12CC3CC(C1)C2C=C3P(=O)(O)O` (stereo unspecified), in the experiment on LXFL 529 NSCLC, the TGI was greater than 100 µM.
Consider `CC1SC(c2ccc(Cl)cc2)N(CCc2cccs2)C1=O` (stereo unspecified), for which, in the experiment with BT-549 breast, the GI50 is 1.49 µM and the TGI stood at 2.81 µM.
In the case of `Cc1c(C2=NN=C(N=Nc3c(O)cccc3O)/C2=C/c2ccccc2)c(=O)n(-c2ccccc2)n1C`, the TGI in the experiment with SNB-78 CNS, with HOP-18 NSCLC, in the experiment on P388 leukemia, in the experiment with P388/ADR leukemia and in the experiment on SN12K1 renal was greater than 100 µM in each case.
Molecule `C=C1C2CCC3(CCC4C5(C)CCCC4(C=[N+](CCO)C5)C3C2)C1O` (stereo unspecified) showed a TGI with BT-549 breast greater than 100 µM.

The record behind these values is PubChem BioAssay (NCI).
